Publication PMC4854023, “Orthology Analysis and In Vivo Complementation Studies to Elucidate the Role of DIR1 during Systemic Acquired Resistance in Arabidopsis thaliana and Cucumis sativus” (Frontiers in Plant Science, 2016)

How the values were obtained:
CsDIR1 = target: T1, CsDIR1 (Cucumis sativus, UniProt A0A0A0K4Q7); assay: TNS fluorescence displacement; format: binding; settings: 16 uM ligand; TNS 5 uM (methods) or 3 uM; pH 7 buffer; in cavity or allosteric
T1 construct: gene Csa_7G372360; Rosetta Gami E. coli; S-Tag thrombin purification; His-tagged
T1 sequence (A0A0A0K4Q7 25-103): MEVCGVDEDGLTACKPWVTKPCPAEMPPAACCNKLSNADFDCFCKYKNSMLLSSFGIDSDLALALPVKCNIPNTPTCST

CsDIR2 = target: T2, CsDIR2 (Cucumis sativus, UniProt A0A0A0KZ41); assay: TNS fluorescence displacement; format: binding; settings: 16 uM ligand; TNS 5 uM (methods) or 3 uM; pH 7 buffer; in cavity or allosteric
T2 construct: gene Csa_4G017140; Rosetta Gami E. coli; S-Tag thrombin purification; His-tagged
T2 sequence (A0A0A0KZ41 26-101): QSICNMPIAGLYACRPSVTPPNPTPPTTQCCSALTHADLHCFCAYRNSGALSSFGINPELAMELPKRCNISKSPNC

% lower TNS fluorescence than MES control (CsDIR1) | % lower TNS fluorescence than MES control (CsDIR2) | Structure (SMILES)
~ 25% |  | O=C(O)[C@@H]1CCCCN1 [Pip]
~ 25% | ~ 30% | O=C(O)CCCCCCCC(=O)O [AzA]
